In publication PMC4130196, “Angiotensin I-Converting Enzyme Inhibitor Derived from Cross-Linked Oyster Protein” (BioMed Research International, 2014):

What was measured:
[1] = biological target: Angiotensin I-converting enzyme (UniProt P12822)
[2] = tested on: spontaneously hypertensive rats (SHR); assay: Antihypertensive activity in vivo: SBP of SHR by tail-cuff method after intragastric administration; set-up: species or system rat
Method: Spontaneously hypertensive rats (SHR) with systolic blood pressure (SBP) between 170 and 190 mmHg and original strain Wistar Kyoto rats (WKR) with SBP between 100 and 125 mmHg were purchased from Harlan, USA (Indianapolis, USA). All rats were treated in accordance with Kyung Hee University guidelines for the care and use of laboratory animals. The animals were individually housed in stainless steel cages and adapted to 23 ± 1°C and humidity of 55 ± 5% under a 12 h light-dark cycle. The 12-week-old rats were fed a pelletized commercial chow diet for a period of 1 week after arrival and then randomly divided into five groups: untreated SHR control group (n = 3); normal WKR control group (n = 3); oyster hydrolysate-treated SHR group (100 mg/kg body weight, n = 3); sardine hydrolysate-treated SHR group (positive control, 100 mg/kg body weight, n = 3); and Captopril-treated SHR group (positive control, ACE inhibitor; 8 mg/kg body weight, n = 3). After intragastric administration of the samples using Sonde, SBP of the rats was measured by a Coda noninvasive blood pressure system (Kent Scientific Corporation, Baltimore, USA) using the tail-cuff method after prewarming for 30 min in an environmental chamber of 32°C at 0, 3, 6, 9, 12, and 24 h. Subsequent measurement of blood pressure was expressed as a percentage of that at the initial time.

[3] = in vitro; type: cell-based; settings: human
Method: The ACE inhibitory activities of the synthetic peptides were measured, and the cell toxicity was evaluated by cell viability testing on the hepatocyte cell line HepG2. HepG2 cells were cultured in MEM medium containing 10% fetal bovine serum. Ninety-six well plates containing 1 × 10^4 cells per well were incubated at 35°C for 24 h under 95% humidity and 5% CO2. After incubation, the synthetic peptides were added (final concentration, 200 μg/mL) and cells were incubated under the same conditions for an additional 24 h. Cell growth was assessed with the CellTiter 96 Aqueous One Solution Cell Proliferation Assay kit (Promega, Madison, WI, USA) and absorbance was determined with a microplate reader (Perkin Elmer 1420, VICTOR X Multilabel Plate readers, Waltham, MA, USA) at 490 nm. Cell viability was calculated as the percentage of absorbance of the synthetic peptide-treated groups compared with that of the untreated group (100% viability).

Chain of UniProt P12822 (P12822 34-1260): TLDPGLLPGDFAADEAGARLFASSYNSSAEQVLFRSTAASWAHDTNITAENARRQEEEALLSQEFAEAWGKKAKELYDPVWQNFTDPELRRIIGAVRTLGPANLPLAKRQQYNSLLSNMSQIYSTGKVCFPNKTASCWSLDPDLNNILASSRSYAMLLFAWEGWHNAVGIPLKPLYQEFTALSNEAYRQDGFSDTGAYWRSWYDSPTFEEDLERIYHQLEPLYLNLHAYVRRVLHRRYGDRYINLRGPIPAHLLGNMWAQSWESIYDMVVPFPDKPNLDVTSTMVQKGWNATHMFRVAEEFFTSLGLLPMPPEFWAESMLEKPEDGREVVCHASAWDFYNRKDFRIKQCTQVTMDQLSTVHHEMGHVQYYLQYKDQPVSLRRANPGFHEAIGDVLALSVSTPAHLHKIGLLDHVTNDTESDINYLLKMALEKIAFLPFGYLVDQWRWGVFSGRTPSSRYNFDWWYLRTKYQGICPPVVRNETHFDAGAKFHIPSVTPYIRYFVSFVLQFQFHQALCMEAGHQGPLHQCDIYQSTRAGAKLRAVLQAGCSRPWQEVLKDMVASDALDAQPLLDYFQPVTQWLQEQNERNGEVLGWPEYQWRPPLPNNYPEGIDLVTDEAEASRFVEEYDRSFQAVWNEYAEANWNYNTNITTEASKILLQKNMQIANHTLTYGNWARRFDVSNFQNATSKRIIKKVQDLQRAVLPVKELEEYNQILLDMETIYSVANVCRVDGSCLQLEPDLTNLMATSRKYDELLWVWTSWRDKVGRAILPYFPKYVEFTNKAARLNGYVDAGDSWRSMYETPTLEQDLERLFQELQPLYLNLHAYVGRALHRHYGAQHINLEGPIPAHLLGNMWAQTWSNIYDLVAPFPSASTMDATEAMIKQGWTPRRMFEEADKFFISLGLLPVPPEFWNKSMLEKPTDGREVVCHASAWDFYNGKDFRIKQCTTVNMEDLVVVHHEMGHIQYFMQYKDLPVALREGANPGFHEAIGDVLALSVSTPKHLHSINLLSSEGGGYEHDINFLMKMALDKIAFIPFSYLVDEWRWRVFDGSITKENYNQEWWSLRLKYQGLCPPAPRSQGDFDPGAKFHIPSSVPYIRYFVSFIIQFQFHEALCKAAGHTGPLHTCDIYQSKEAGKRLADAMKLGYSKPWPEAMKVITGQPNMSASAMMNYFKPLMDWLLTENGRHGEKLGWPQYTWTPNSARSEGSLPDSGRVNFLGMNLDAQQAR

| IC50 of ACE inhibition (enzyme activity: hippuric acid released from HHL, by HPLC) [1] | Compound | viability at 24 h, 200 μg/mL [3] | further results |
| --- | --- | --- | --- |
| 16.7 µM | TAY (peptide) |  |  |
| 68.2 µM | FYN (peptide) |  |  |
| 51.5 µM | KY (peptide) |  |  |
| 29 µM | VK (peptide) |  |  |
| 93.9 µM | YA (peptide) |  |  |

Continued, compound first:

| Compound | IC50 of ACE inhibition (enzyme activity: hippuric acid released from HHL, by HPLC) [1] | viability at 24 h, 200 μg/mL [3] | further results |
| --- | --- | --- | --- |
| C[C@H](CS)C(=O)N1CCC[C@H]1C(=O)O [Captopril] |  |  | SBP at maximum decrease, as % of the initial SBP ([2]; 8 mg/kg intragastric, 12 h after administration): 85.3 ± 4.5%; effect on SBP of SHR (in words) ([2]; oral administration, oyster and sardine hydrolysate 100 mg/kg, Captopril 8 mg/kg): not significant |
| NCCCC[C@H](N)C(=O)N[C@@H](Cc1ccc(O)cc1)C(=O)O [KY] |  | 118 ± 7% |  |
| CC(C)[C@H](N)C(=O)N[C@@H](CCCCN)C(=O)O [VK] |  | 118 ± 15.1% |  |
| C[C@H](NC(=O)[C@@H](N)[C@@H](C)O)C(=O)N[C@@H](Cc1ccc(O)cc1)C(=O)O [TAY] |  | 105 ± 1.9% |  |
| NC(=O)C[C@H](NC(=O)[C@H](Cc1ccc(O)cc1)NC(=O)[C@@H](N)Cc1ccccc1)C(=O)O [FYN] |  | 110 ± 3% |  |
